What was measured:
[1] = target: T1, PAS domain-containing serine/threonine-protein kinase (Homo sapiens, UniProt Q96RG2); assay: Inhibition of purified human PASK kinase domain expressed in insect cells using MBP protein substrate incubated for 10 mins before ATP addition and measured after 1 hr by kinase-Glo luminescent kinase assay
[2] = target: T1, PAS domain-containing serine/threonine-protein kinase; assay: Inhibition of purified full-length human PASK expressed in insect cells using MBP protein substrate incubated for 10 mins before ATP addition and measured after 1 hr by kinase-Glo luminescent kinase assay

T1 sequence (Q96RG2 whole entry, the tested form may be a part): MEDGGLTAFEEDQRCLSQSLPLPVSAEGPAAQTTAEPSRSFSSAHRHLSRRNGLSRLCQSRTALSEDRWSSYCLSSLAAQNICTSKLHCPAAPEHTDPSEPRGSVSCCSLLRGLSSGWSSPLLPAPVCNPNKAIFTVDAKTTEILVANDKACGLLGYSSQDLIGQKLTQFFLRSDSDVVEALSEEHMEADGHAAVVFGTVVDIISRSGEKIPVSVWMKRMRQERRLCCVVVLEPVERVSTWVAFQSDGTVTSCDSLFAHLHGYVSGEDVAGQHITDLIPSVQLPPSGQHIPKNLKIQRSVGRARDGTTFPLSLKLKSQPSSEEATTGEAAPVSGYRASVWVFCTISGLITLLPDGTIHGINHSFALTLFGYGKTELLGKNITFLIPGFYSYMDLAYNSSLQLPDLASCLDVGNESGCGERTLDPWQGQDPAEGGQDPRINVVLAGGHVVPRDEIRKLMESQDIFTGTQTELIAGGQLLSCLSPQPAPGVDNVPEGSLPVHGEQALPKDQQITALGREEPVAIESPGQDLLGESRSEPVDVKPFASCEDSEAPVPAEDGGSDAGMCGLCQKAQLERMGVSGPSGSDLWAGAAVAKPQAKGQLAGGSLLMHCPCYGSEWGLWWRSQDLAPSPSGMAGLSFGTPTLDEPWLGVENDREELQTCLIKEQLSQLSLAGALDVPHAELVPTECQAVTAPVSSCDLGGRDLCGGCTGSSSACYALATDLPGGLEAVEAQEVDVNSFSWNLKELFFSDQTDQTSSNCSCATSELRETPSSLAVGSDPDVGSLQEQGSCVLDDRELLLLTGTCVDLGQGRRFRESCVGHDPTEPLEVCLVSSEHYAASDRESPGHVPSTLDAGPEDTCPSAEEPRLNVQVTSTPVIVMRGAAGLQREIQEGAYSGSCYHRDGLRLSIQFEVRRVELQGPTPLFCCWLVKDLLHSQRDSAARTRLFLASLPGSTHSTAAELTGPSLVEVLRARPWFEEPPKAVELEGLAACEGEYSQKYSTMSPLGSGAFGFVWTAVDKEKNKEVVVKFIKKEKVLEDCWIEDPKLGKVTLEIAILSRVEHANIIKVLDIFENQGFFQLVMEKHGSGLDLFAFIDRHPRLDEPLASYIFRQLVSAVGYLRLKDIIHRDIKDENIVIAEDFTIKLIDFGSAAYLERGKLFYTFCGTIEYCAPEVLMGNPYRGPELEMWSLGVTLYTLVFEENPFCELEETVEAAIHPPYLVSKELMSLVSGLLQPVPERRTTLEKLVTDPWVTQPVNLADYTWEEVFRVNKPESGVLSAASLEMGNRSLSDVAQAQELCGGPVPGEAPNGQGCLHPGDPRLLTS

IC50 [1] [µM] | IC50 [2] [µM] | Compound
≥ 10 | ≥ 10 | CCc1c(C)[nH]c2c(-c3ccc(Cl)cc3)c(C)nn2c1=O
≥ 10 | ≥ 10 | O=c1cc(Cc2ccccc2)[nH]c2c(-c3ccccc3)c(-c3ccccc3)nn12
≥ 10 | ≥ 10 | Cc1ccc(-c2cc(=O)n3nc(C)c(-c4ccccc4)c3[nH]2)cc1
≤ 10 | ≤ 10 | COc1ccc(-c2cc(=O)n3nc(C)c(-c4ccc(F)cc4)c3[nH]2)cc1
